Reference: US20180235917A1, “COMPOSITIONS, METHODS AND KITS FOR TREATMENT OF DIABETES AND/OR […]” (NuSirt Sciences, Inc., priority 2014, published 2018)
Where two headings read alike, the source gives them in different places. One block for each compound: values may come before it.

Columns and labels:
[1] = test system: adipocytes (3T3-L1) and myotubes (C2C12); assay: Fatty acid oxidation and dose-response screening, cell type not stated; format: cell-based, mouse; conditions: for synergy with leucine or HMB in stimulating fatty acid oxidation: compound at its no-effect concentration with leucine 0.5 mM or HMB 5 μM
C2C12 myotubes = assay: Glucose utilization (extracellular acidification response to glucose) in myotubes; format: cell-based, mouse
Caenorhabditis elegans = assay: Lifespan of C. elegans (Example 10); format: in vivo; conditions: basal conditions; leucine 0.5 mM, nicotinic acid 10 nM
Method: Eggs were hatched on a starved plate overnight. […] All treatments were added with the indicated concentrations to E. coli the agar plates. […] The worms were maintained at 20° C. throughout the duration of the study. Worms were transferred to new plates daily to eliminate progeny. […] The study was continued until the last animal was dead. Data were analyzed via Kaplan-Meier survival curves using Prism 6 (GraphPad Software) and statistical significance was determined by the Log-rank (Mantel-Cox) test.

[2] = test system: LDL receptor knockout mice; assay: LDL receptor knockout mice on western diet: plasma lipids, atherosclerosis, macrophage infiltration (Example 7); format: in vivo, mouse
Text: LDL receptor knockout (LDLRKO) mice were obtained from Jackson Laboratories (Bar Harbor, Me.), and housed in groups under room temperature in a humidity-controlled environment with a regular light and dark cycle. The mice were provided free access to an atherogenic western diet (WD) containing 0.21% cholesterol (by weight) and 40% calories from fat and water for 4 weeks prior to treatment. For treatment, the mice were given (a) the WD diet alone, (b) WD and 24 g of leucine/kg diet, (c) WD and 24 g of leucine/kg diet and 50 mg nicotinic acid/kg diet, (d) WD and 24 g of leucine/kg diet and 250 mg nicotinic acid/kg diet, or (e) WD and 1000 mg nicotinic acid/kg diet; this is approximately equivalent to a low therapeutic dose of nicotinic acid in hypercholesterolemic humans (˜1,500 mg/day). The treatments were administered for eight weeks continuously.
Blood samples of the mice in all groups were obtained from tails of the mice at following four and eight weeks of administration. The serum/plasma levels of triglyceride, total cholesterol and cholesterol esters were measured. Following treatment, food was removed for four hours and the animals were euthanized.
Blood was collected into EDTA-coated tubes to analyze plasma lipid and cholesterol profiles. Plasma total cholesterol (TC, Pointe Scientific, Canton, Mich.), free cholesterol (FC, Wako, Richmond, Va.) and triglyceride (TG, Wako, Richmond, Va.) concentrations were measured using enzymatic assays according to manufacturer's instructions. Cholesterol ester (CE) was calculated as the difference between TC and FC.
To assess atherosclerosis, the circulatory system was perfused following euthanasia with phosphate-buffered saline (PBS) before removing the heart and aorta. The upper one-third of the heart was dissected and embedded in Optimal Cutting Temperature Compound (Sakura Tissue-Tek, Torrance, Calif.), frozen, and stored at −80° C. Blocks were serially cut at 8 μm intervals and stained with hematoxylin and 0.5% Oil Red O (Sigma-Aldrich) to evaluate aortic sinus atherosclerotic intimal area. Atherosclerotic lesion area and Oil Red O positive area were quantified using Image-Pro Plus software (Media Cybernetics, Bethesda, Md.). Whole aorta (from sinotubular junction to iliac bifurcate) was dissected and fixed in 10% formalin, and the adventitia was cleaned. Aortas were opened along the longitudinal axis and pinned onto black silicon elastomer (Rubber-Cal, Santa Ana, Calif.) for the quantification of atherosclerotic lesion area. The percentage of total aortic surface covered with atherosclerotic lesions was quantified by Image-Pro Plus software (Media Cybernetics, Bethesda, Md.) and used to determine the total lesion area.
To assess macrophage infiltration, Sections of aortic sinus were immuno-stained with rat monoclonal antibody against macrophage-specific CD68 (Clone FA11, 1:75, AbD Serotec, Raleigh, N.C.) followed by staining with alkaline phosphatase-conjugated mouse anti-rat (for CD68, 1:50) secondary antibodies (Jackson ImmunoResearch laboratories, West Grove, Pa.). Control slides contain no primary antibody. The CD68-positive areas were analyzed using Image-Pro Plus software (Media Cybernetics, Bethesda, Md.).

[3] = test system: diet-induced obesity mice; assay: High fat diet-induced obese, insulin resistant mice: GTT, ITT, glucose, insulin, HOMAIR, muscle Western blot (Example 12); format: in vivo, C57/BL6 mice; conditions: HFD, no metformin; for glucose tolerance test (fasting and post-prandial hyperglycemia): Leu 24 g/kg diet with or without Res 12.5 mg/kg diet
Sirt3 = target: T1, Sirt3 (Mus musculus, UniProt Q8R104); assay: Sirt3 stimulation; format: cell-based; conditions: leucine 0.5 mM, HMB 5 μM, resveratrol 200 nM
T1 construct: endogenous in cells; host or cells: 3T3-L1 adipocytes and/or C2C12 myotubes (inferred)
T1 sequence (Q8R104 1-334): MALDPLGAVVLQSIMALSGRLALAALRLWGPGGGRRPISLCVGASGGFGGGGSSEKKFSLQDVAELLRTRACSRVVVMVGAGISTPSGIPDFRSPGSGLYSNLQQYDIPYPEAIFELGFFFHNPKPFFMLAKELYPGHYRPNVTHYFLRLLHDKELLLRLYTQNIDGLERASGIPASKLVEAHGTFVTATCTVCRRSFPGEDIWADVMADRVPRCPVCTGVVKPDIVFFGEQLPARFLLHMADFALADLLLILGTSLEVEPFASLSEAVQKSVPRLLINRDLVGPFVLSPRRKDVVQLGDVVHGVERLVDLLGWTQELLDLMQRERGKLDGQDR

diabetic db/db mice = conditions: for decrease in blood glucose over the 30 minute linear portion of the insulin tolerance test: insulin 0.75 U/kg
[4] = high dose metformin 300 mg/kg bw

Compound: O=C(O)/C=C/c1ccc(O)c(O)c1 [Caffeic acid]
concentrations that exert no effect (dose-response curves; sub-therapeutic dose) ([1]; compound alone): ≤ 1000 nM

Compound: O=C(O[C@@H]1Cc2c(O)cc(O)cc2O[C@@H]1c1cc(O)c(O)c(O)c1)c1cc(O)c(O)c(O)c1 [EGCG, epigallocatechin gallate]
increase in glucose utilization in myotubes (C2C12 myotubes; extracellular acidification response to glucose, concentrations as in E26): no independent effect
direct stimulation of fatty acid oxidation ([1]; compound alone): minimally active
synergy with leucine or HMB in stimulating fatty acid oxidation [1]: do not detect synergistic effects

Compound: O=c1oc2c(O)c(O)cc3c(=O)oc4c(O)c(O)cc1c4c23 [Ellagic acid]
activity in dose-response curves ([1]; even at high concentrations (50 μM)): little activity

Compound: CC(C)Cn1c(=O)n(C)c(=O)c2[nH]cnc21 [IBMX, 3-isobutyl-1-methylxanthine, reference compound]
synergy with leucine or HMB in stimulating fatty acid oxidation [1]: weak but statistically significant synergy with HMB, but not leucine

stimulation of Sirt3 (Sirt3): no independent effects
Compound: CC(C)C[C@H](N)C(=O)O [Leucine, leucine]
increase in insulin-stimulated glucose utilization (C2C12 myotubes; C2C12 myotubes, 5 nM insulin, galegine 5 μM, leucine 0.5 mM): no effect
effect on lifespan (Caenorhabditis elegans): no independent effect
decrease in aortic macrophage infiltration (CD68 positive area) ([2]; eight weeks, doses as E77): significant independent effect
decrease in atherosclerotic lesion size (lesion and lipid area) ([2]; eight weeks, nicotinic acid 1,000 mg/kg diet, leucine 24 g/kg diet, or leucine + nicotinic acid 50 mg/kg diet, vs western diet alone): exerted an independent effect
decrease in plasma cholesterol esters ([2]; four weeks, doses as E73): no independent effect
decrease in plasma total cholesterol ([2]; four weeks, western diet + nicotinic acid 1,000 mg/kg diet, leucine 24 g/kg diet, or leucine + nicotinic acid 50 or 250 mg/kg diet): no independent effect
glucose tolerance test (fasting and post-prandial hyperglycemia) [3]: not significantly affected
glucose tolerance test (fasting and post-prandial hyperglycemia) ([3]; listed as leucine): no independent effect
insulin tolerance test ([3]; Leu 24 g/kg diet): no independent effect

Compound: OC[C@@H](O)[C@@H](O[C@H]1O[C@H](CO)[C@@H](O)[C@H](O)[C@H]1O)[C@H](O)[C@@H](O)CO [Maltitol]
concentrations that exert no effect (dose-response curves; sub-therapeutic dose) ([1]; compound alone): ≤ 100 nM
synergy with leucine or HMB in stimulating fatty acid oxidation [1]: no synergy

Compound: CN(C)C(=N)N=C(N)N [Metformin]
reduction of plasma insulin (diabetic db/db mice; db/db mice, 2 weeks, high dose metformin 300 mg/kg bw (1.5 g/kg diet)): 27%
effect on plasma glucose (diabetic db/db mice; [4]): no significant effect
effects on body composition (diabetic db/db mice; [4]): no significant effects
plasma insulin (diabetic db/db mice; high dose metformin 300 mg/kg bw, control 62): 45 uU/mL
effects on any variable studied (diabetic db/db mice; low dose (150 mg/kg) and very low dose (50 mg/kg) metformin alone): no significant independent effects
decrease in blood glucose over the 30 minute linear portion of the insulin tolerance test (diabetic db/db mice; low or very low dose of metformin, alone or as blend): minimal changes
effect on visceral fat mass (diabetic db/db mice; metformin at any dosage in the absence of HMB): not affected
decrease in blood glucose over the 30 minute linear portion of the insulin tolerance test (diabetic db/db mice; standard metformin dose (1.5 g/kg diet)): ~60 mg/dL

Compound: O[C@H]1[C@H](O)[C@@H](O)[C@H](O)[C@@H](O)[C@H]1O [Myo-inositol]
synergy with leucine or HMB in stimulating fatty acid oxidation [1]: no synergy

Compound: OC[C@@H](O)[C@@H](O)[C@H](O)[C@@H](O)CO [Sorbitol]
synergy with leucine or HMB in stimulating fatty acid oxidation [1]: no synergy

Compound: Cn1c(=O)c2[nH]cnc2n(C)c1=O [Theophylline, reference compound]
concentrations that exert no effect (dose-response curves; sub-therapeutic dose) ([1]; compound alone): below 1 μM

Compound: Fucoxanthin
concentrations that exert no effect (dose-response curves; sub-therapeutic dose) ([1]; compound alone): ≤ 100 nM
